Measured values as given in patent publication US20160303137A1, “DUAL PI3K AND WNT PATHWAY INHIBITION AS A TREATMENT FOR CANCER” (Indiana University Research and Technology Corporation, priority 2015, published 2016).
Where two headings read alike, the source gives them in different places.

Key:
[1] = test system: Wnt pathway genes incl. Porcupine (PORCN); experiment: RNA-seq of MDA-MB-231 before and after Buparlisib treatment; type: cell-based, human; settings: MDA-MB-231, RNA-seq after vs before treatment
Protocol: RNA-sequencing for the Buparlisib treated MDA-MB-231 cell line experiment was performed as follows. To enrich for the non-ribosomal RNA transcriptome, RNA samples were first depleted of ribosomal RNA using the Low Input Ribominus Kit (Life Technologies). ERCC spike-in controls (Pool 1) were introduced for all samples (Life Technologies). RNA libraries were constructed using the Ion Total RNA-Seq Kit for AB Library Builder System (Life Technologies) per manufacturer's instructions. Libraries were barcoded using the IonXpress RNA-Seq Barcode 1-16 Kit (Life Technologies), and libraries were quantified using the Agilent TapeStation 2200 along with the DNA D1K Kit. Libraries were diluted to a concentration of 11 picomolar prior to templating and emulsion PCR using the Ion Template OT2 200 v2 kit along with Ion OneTouch 2 instrument (Life Technologies). Templates were quantified using the IonSphere Quality Control Kit (Life Technologies). Samples were sequenced on an Ion Proton Next-Generation Sequencer using the Ion Proton PI chip and the Ion PI Sequencing 200 v2 kit (Life Technologies). Samples were sequenced using 2 RNA-seq libraries/samples per chip to an average of 30-40 million reads per sample. Reads were mapped to the human genome (hg19) using the STAR algorithm (Dobin et al. Bioinformatics 29, 15-21 (2013)). Aligned BAM files were then imported into Partek Genomics Suite. […]

[2] = test system: phosphorylated-AKT (p-AKT Ser 473); experiment: Western blot of phospho-AKT in TNBC cell lines; type: cell-based; settings: MDA-MB-231, HCC70, HCC1143; 1 μM or 10 μM; 72 hours
Protocol: (§1) For Western Blot analysis, target modulation was assessed using qPCR for Axin2 (a marker of WNT974), and western blot for Porcupine and Phospho-Akt […] (a marker of Buparlisib activity). qPCR was performed using Taqman assays (Life Technologies). For western blotting, protein was isolated using RIPA buffer and quantified with BCA assay (Thermo Fisher). Protein was run on Bis-Tris gels (Life Technologies) and transferred to PVDF. Primary pAKT-[…] antibody (Cell Signaling Technology, Beverly, Mass.), β-actin (Cell Signaling Technology), and PORCN (Abcam, Cambridge, England) were incubated overnight with subsequent 1 hour incubation with HRP-conjugate secondary antibody. Staining was performed using a chemiluminescent substrate (ThermoFisher). Imaging was performed using an LAS-4000 Luminescent Image Analyzer (Fujifilm, Tokyo, Japan). Three TNBC cell lines: MDA-MB-231, HCC70, and HCC1143 were treated with either 0, 1 μM or 10 μM Buparlisib. After 72 hours, protein was isolated and PORCN and pAKT expression was observed.

Porcupine (PORCN) = experiment: Western blot of Porcupine in TNBC cell lines; type: cell-based; settings: MDA-MB-231, HCC70, HCC1143; 1 μM or 10 μM; 72 hours
Protocol: as §1

[3] = In vivo single-dose PK, plasma HPLC-MS/MS; design: species or system NSG mice; settings: for AUC(0-inf) / Cmax / Tmax / half-life / Vd/F: NOD-scid IL2Rgamma-null (NSG), mouse, po; for Vd/F: read-out: Vdss/F; for Cl/F: single dose po
Protocol: For pharmacokinetic studies, NOD-scid IL2Rgamma-null (NSG) mice were obtained from the In Vivo Therapeutics (IVT) Core at the Indiana University School of Medicine and given a single dose of Buparlisib, WNT974, or the combination at pre-established concentrations of 30 mg/kg and 3 mg/kg respectively. This experiment employed 45 NSG mice (n=15 for each group). Plasma was drawn from 3 mice from each group at 0.5, 1, 2, 6, and 24 hours post dosage. Buparlisib and WNT974 were quantified in the plasma using high-performance liquid chromatography-mass spectrometry (HPLC-MS/MS). Pharmacokinetic (PK) parameters for Buparlisib and WNT974 including area under the curve (AUC), area under the moment curve (AUMC), and half-life (t½) were estimated using non-compartmental methods with Excel and WinNonlin v 2.0 (Certara, Princeton, N.J.). The maximum plasma concentration (Cmax) and time of Cmax (tmax) was calculated from the data. The systemic clearance (Cl/F, where F=bioavailability) of each drug was calculated from the dose and AUC0-∝The apparent volume of distribution (Vdss/F) was estimated from the Cl/F and mean residence time. The single-agent pharmacokinetic parameters were compared to the drug combination parameters to determine whether a drug-drug interaction exists.

TMD-231 TNBC cells = experiment: Pharmacodynamic study, TMD-231 xenograft tumor volume; type: in vivo, NSG mice; settings: single agent, 7 days once-a-day; Buparlisib 30 mg/kg, WNT974 3 mg/kg
Protocol: For the pharmacodynamic studies, NSG mice were implanted with TMD-231 TNBC cells into the mammary fat pad of 24 NSG mice (6 mice per group: Vehicle, Buparlisib, WNT974, Buparlisib+WNT974). The TMD-231 cell line is a variant of the MDA-MB-231 cell line that metastasizes to the lung. Tumors were allowed to grow for 29 days to an average size of approximately 350 mm^3 prior to dosing. To validate compound-mediated modulation of the PI3K/mTOR and Wnt signaling pathways, mice were dosed once-a-day with vehicle, Buparlisib (30 mg/kg), WNT974 (3 mg/kg), or the combination for 7 days, with intermittent tumor measurements.

[4] = Quantification of drug in resected tumors (PD study); type: in vivo, NSG mice; settings: tumors resected 1 hour and 7 hours after last dose, day 7; HPLC-MS/MS
Phospho-AKT = experiment: pAKT western blot on TMD-231 tumors (PD study); type: in vivo, NSG mice; settings: 7 days once-a-day; Buparlisib 30 mg/kg, WNT974 3 mg/kg
Protocol: as §1, with “Japan).” for “Japan). Three TNBC cell lines: MDA-MB-231, HCC70, and HCC1143 were treated with either 0, 1 μM or 10 μM Buparlisib. After 72 hours, protein was isolated and PORCN and pAKT expression was observed.”

AXIN2 RNA = experiment: Axin2 RNA qPCR on TMD-231 tumors (PD study); type: in vivo, NSG mice; settings: 7 days once-a-day; Buparlisib 30 mg/kg, WNT974 3 mg/kg
Protocol: as §1, with “Japan).” for “Japan). Three TNBC cell lines: MDA-MB-231, HCC70, and HCC1143 were treated with either 0, 1 μM or 10 μM Buparlisib. After 72 hours, protein was isolated and PORCN and pAKT expression was observed.”

TMD-231 lung metastases = experiment: Lung metastases quantification (Ki67), TMD-231 model; type: in vivo, NSG mice; settings: Ki67 positive pixels in lung sections; Buparlisib 30 mg/kg, WNT974 3 mg/kg
Protocol: For the pharmacodynamic studies, NSG mice were implanted with TMD-231 TNBC cells into the mammary fat pad of 24 NSG mice (6 mice per group: Vehicle, Buparlisib, WNT974, Buparlisib+WNT974). The TMD-231 cell line is a variant of the MDA-MB-231 cell line that metastasizes to the lung. Tumors were allowed to grow for 29 days to an average size of approximately 350 mm^3 prior to dosing. To validate compound-mediated modulation of the PI3K/mTOR and Wnt signaling pathways, mice were dosed once-a-day with vehicle, Buparlisib (30 mg/kg), WNT974 (3 mg/kg), or the combination for 7 days, with intermittent tumor measurements. […] To quantify lung metastases, lungs were extracted, fixed in 10% formalin, and processed in paraffin. Five-micrometer sections were H&E stained, deparaffinized, blocked, and stained using primary anti-human Ki67 antibody (DAKO, Carpinteria, Calif.). The Aperio whole slide digital imaging system was used for imaging (Leica, Wetzlar, Germany). Using the Aperio ScanScope CS, 20× images were taken at scan times ranging from 1.5 to 2.25 minutes. The total nuclear labeling index (Ki67) was generated using the Aperio ImageScope standard positive pixel algorithm. The Image Analysis software was used to calculate the percent of positive pixels (brown staining) in one large cross section from each lung.

[5] = test system: TNBC patient derived xenograft (PDX) (ID: BR0901); experiment: TNBC PDX study, survival; type: in vivo, NSG mice; settings: n=10 per group, once-a-day max 28 days; Buparlisib 30 mg/kg, WNT974 3 mg/kg
Protocol: NSG mice were trochar implanted in the right hind flank with a passage 1-4, 5 mm^3 TNBC patient derived xenograft (PDX) (ID: BR0901) at The Jackson Laboratory (The Jackson Laboratory, Bar Harbor, Maine). […] 40 TNBC PDX implanted mice were used (10 mice per group: Vehicle, Buparlisib (30 mg/kg), WNT974 (3 mg/kg), and Buparlisib+WNT974). Tumors were grown to an average of 70-150 mm^3 and mice averaged 22.5 grams body weight. Mice were dosed once-a-day for a maximum of 28 days. Tumor measurements were made two times a week. Mice whose tumors reached a size of 1500 mm^3 were euthanized per IACUC protocol.

[6] = known; cited from earlier work
Porcupine = target: T1, Porcupine (Homo sapiens, UniProt Q9H237); settings: recently published data; cited from earlier work
T1 sequence (Q9H237 1-461): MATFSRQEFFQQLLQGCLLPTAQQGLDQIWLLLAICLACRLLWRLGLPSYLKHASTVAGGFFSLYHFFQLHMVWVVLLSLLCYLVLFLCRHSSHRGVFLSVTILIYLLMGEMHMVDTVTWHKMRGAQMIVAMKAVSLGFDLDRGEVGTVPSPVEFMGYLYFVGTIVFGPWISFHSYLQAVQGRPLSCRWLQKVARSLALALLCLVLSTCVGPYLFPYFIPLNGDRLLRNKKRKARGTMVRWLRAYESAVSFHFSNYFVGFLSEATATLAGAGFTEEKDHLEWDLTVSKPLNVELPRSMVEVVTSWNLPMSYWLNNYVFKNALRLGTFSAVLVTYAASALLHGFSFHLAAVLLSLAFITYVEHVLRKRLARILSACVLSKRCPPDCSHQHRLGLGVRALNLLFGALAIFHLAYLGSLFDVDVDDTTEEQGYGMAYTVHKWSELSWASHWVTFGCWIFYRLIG

tumor growth = settings: recently published data; cited from earlier work
[7] = drug given alone, Buparlisib 30 mg/Kg, WNT974 3 mg/Kg
[8] = measured drug given in combination with the other, Buparlisib 30 mg/Kg + WNT974 3 mg/Kg

Structure (SMILES) | AUC(0-inf) [3, 7] | Cmax [3, 7] | Tmax [3, 7] | half-life [3, 7] | Vd/F [3, 7] | AUC(0-inf) [3, 8] | Cmax [3, 8] | Tmax [3, 8] | half-life [3, 8] | Vd/F [3, 8] | Cl/F [3, 7] | Cl/F [3, 8] | tumor volume change (in words) (TMD-231 TNBC cells) | drug concentrations in tumor tissue [4] | Inhibition of Phospho-AKT in tumors (Phospho-AKT) | Axin2 RNA expression in tumors (AXIN2 RNA) | lung metastases compared with the control group (TMD-231 lung metastases) | mice survived to the end of the study [5] | toxicity / most common side effect in humans [6] | also measured
Nc1cc(C(F)(F)F)c(-c2cc(N3CCOCC3)nc(N3CCOCC3)n2)cn1 [Buparlisib, 5-(2,6-di-4-morpholinyl-4-pyrimidinyl)-4-(trifluoromethyl)-2-pyridinamine] | 16500 ng·h/mL | 2300 ng/mL | 1 h | 3 h | 0.15 L | 15500 ng·h/mL | 2850 ng/mL | 2 h | 2.8 h | 0.16 L | 0.034 L/h | 0.035 L/h | grew slightly | reaching the tumor | observed | no significant change | small but non-significant decreases | 40% | depression, anxiety, pneumonitis, and liver toxicity | expression of Wnt pathway genes [1]: significant increase; Porcupine (PORCN) gene over-expression after treatment ([1]; preliminary data): approximately 8 fold; phospho-AKT [2]: potent inhibition; Porcupine protein expression (Porcupine (PORCN)): increase
Cc1cc(-c2ncc(CC(=O)Nc3ccc(-c4cnccn4)cn3)cc2C)ccn1 [WNT974, 2-[5-methyl-6-(2-methylpyridin-4-yl)pyridin-3-yl]-N-(5-pyrazin-2-ylpyridin-2-yl)acetamide] | 636 ng·h/mL | 165 ng/mL | 1 h | 2.1 h | 0.24 L | 621 ng·h/mL | 143 ng/mL | 1 h | 3 h | 0.4 L | 0.081 L/h | 0.087 L/h | grew slightly | reaching the tumor | not | decrease | small but non-significant decreases | 0% | dysgeusia | inhibition of its target (Porcupine): potent inhibition; inhibition of tumor growth in vivo (tumor growth): significant inhibition
